How the values were obtained:
Assay type in all cases: binding
[1] = target: kinases (KINOMEscan panel) (Homo sapiens, UniProt Q8NI60); conditions: COQ8A; NEW KINOMEscan
[2] = target: T1, kinases (KINOMEscan panel) (Homo sapiens, UniProt O95835); conditions: LATS1; NEW KINOMEscan
T1 sequence (O95835 1-1130): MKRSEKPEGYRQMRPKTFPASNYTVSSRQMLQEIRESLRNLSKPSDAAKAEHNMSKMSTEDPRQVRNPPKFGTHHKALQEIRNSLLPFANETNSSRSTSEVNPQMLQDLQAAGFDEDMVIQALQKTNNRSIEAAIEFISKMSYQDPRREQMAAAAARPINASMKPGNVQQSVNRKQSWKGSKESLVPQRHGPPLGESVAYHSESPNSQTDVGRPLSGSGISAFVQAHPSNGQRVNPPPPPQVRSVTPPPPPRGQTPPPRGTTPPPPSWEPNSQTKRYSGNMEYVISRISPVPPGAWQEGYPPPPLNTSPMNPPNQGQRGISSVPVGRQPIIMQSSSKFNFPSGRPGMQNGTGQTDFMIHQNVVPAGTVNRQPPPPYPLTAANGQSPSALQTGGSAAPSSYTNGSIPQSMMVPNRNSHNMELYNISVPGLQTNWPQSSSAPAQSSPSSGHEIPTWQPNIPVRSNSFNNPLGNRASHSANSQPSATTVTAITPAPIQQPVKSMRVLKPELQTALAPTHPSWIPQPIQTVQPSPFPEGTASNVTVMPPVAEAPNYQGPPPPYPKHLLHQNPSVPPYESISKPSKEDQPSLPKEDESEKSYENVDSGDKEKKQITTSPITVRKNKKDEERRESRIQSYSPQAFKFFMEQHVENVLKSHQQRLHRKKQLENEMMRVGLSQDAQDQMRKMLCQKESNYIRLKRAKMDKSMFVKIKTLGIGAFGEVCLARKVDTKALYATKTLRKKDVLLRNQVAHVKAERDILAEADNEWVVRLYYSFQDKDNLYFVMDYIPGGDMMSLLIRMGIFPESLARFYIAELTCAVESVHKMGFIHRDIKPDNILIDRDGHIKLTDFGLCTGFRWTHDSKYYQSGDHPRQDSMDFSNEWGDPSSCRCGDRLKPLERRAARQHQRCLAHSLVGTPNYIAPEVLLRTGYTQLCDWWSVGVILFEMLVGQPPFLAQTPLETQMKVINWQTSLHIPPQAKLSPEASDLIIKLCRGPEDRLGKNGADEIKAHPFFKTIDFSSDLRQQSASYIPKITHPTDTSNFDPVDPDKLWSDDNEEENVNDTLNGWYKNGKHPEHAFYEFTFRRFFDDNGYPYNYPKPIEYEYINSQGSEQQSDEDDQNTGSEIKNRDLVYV

[3] = target: kinases (KINOMEscan panel) (Homo sapiens, UniProt Q9Y3S1); conditions: WNK2; NEW KINOMEscan
[4] = target: T2, kinases (KINOMEscan panel) (Homo sapiens, UniProt P20794); conditions: NEW KINOMEscan
T2 sequence (P20794 1-623): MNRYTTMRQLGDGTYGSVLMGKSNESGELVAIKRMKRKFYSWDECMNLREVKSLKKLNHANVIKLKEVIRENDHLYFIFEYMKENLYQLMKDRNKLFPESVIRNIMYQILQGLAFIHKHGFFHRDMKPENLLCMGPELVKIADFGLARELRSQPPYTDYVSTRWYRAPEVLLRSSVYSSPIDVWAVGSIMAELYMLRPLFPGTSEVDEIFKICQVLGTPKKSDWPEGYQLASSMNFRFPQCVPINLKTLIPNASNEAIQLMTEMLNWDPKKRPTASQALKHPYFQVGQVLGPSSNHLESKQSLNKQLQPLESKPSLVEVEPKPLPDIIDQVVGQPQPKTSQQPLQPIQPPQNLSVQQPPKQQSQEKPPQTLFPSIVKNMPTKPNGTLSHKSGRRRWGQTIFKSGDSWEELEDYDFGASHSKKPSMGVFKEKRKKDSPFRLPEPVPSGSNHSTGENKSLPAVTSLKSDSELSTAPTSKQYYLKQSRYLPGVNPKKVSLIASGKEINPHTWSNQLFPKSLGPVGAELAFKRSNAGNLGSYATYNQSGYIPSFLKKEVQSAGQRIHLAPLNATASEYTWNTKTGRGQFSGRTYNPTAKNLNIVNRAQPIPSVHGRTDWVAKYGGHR

Sequence of kinases (KINOMEscan panel) (Homo sapiens, UniProt Q9Y3S1) (Q9Y3S1 whole entry): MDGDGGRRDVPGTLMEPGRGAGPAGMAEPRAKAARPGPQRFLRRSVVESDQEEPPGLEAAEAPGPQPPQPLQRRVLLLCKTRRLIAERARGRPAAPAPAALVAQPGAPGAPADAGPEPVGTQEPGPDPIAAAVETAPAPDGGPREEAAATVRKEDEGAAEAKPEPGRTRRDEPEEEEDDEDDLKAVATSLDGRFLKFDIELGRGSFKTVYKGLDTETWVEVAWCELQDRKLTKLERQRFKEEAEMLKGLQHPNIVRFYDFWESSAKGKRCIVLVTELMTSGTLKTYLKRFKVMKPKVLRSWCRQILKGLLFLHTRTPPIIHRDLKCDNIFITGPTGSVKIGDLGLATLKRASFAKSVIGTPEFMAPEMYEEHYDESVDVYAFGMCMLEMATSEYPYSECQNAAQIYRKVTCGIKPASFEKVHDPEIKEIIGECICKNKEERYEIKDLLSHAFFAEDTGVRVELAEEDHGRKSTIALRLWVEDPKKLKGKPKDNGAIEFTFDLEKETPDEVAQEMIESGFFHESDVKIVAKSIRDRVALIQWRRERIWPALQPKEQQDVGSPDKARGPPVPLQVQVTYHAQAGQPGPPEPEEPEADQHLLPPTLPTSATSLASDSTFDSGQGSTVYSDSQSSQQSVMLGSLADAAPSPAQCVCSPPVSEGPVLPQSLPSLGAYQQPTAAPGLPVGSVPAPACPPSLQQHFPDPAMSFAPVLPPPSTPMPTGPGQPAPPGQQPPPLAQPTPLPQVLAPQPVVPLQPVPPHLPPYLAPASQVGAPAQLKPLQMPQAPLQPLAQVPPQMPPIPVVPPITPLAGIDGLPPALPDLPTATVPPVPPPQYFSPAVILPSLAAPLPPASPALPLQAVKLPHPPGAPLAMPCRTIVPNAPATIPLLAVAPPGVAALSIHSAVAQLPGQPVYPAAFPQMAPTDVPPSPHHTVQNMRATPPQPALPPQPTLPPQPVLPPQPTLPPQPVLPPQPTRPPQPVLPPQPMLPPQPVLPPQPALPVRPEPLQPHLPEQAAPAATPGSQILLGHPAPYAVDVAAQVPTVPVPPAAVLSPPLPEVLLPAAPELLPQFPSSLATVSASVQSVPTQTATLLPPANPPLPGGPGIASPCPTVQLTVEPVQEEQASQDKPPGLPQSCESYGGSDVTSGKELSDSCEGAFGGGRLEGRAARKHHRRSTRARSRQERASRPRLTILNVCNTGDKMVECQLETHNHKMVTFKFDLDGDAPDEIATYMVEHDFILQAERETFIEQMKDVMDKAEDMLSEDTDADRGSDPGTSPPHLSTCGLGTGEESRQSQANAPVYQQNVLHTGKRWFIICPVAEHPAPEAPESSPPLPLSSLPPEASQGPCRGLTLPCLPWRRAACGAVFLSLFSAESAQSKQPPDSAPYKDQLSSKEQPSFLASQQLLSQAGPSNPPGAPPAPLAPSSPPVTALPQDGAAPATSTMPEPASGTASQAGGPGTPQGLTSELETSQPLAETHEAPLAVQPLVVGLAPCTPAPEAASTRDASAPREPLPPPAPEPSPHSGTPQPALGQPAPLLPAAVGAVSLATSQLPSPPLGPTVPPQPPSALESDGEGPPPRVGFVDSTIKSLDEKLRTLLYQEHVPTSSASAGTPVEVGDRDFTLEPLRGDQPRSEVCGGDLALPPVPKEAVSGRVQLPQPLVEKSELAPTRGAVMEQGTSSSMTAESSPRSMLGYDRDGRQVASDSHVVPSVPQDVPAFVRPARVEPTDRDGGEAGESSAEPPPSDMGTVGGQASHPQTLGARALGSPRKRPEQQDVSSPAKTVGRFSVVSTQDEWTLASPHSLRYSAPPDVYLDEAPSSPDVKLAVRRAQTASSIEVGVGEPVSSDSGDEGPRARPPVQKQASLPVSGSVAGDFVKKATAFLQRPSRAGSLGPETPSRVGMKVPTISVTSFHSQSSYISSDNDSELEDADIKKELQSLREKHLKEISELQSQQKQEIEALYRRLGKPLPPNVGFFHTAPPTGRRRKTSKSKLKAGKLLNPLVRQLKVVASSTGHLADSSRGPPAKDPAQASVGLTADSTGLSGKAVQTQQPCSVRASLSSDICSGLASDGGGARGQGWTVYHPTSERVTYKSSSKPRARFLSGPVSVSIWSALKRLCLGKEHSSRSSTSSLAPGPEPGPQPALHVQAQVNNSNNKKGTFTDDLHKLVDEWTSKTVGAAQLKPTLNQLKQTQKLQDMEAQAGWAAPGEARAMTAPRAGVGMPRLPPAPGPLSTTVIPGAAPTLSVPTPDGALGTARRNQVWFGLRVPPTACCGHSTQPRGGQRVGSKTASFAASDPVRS
Sequence of kinases (KINOMEscan panel) (Homo sapiens, UniProt Q8NI60) (Q8NI60 163-647): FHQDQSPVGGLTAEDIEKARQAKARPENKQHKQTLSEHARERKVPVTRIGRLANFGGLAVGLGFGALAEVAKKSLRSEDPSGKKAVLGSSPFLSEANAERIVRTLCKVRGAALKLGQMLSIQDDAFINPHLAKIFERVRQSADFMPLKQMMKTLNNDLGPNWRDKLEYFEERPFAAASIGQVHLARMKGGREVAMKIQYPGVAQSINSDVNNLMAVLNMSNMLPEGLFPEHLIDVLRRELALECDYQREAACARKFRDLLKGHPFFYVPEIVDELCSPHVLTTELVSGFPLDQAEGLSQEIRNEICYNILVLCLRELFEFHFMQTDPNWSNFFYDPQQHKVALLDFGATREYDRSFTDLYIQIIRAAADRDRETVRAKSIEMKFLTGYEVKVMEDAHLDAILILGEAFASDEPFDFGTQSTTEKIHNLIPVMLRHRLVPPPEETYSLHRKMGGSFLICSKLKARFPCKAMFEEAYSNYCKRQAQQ

For Cc1cccc(-c2nc(Nc3ccc4nn(C)cc4c3)c3ccccc3n2)n1 [NK167], the “KINOMEscan COQ8A” value [1] was 5, the “KINOMEscan LATS1” value [2] was 0 and the “KINOMEscan WNK2” value [3] was 0. For the same molecule, the “KINOMEscan MAK or ALPK3” value [4] was 0.
In the case of Cc1cccc(-c2nc(N(C)c3ccc4ncsc4c3)c3ccccc3n2)n1 [NK-161], the “KINOMEscan COQ8A” value [1] is reported as 1, the “KINOMEscan LATS1” value [2] is reported as 5 and the “KINOMEscan WNK2” value [3] is reported as 0. The “KINOMEscan MAK or ALPK3” value [4] was 5.
